From ChEMBL document CHEMBL1811878, “Heteroatom-substituted analogues of orphan nuclear receptor small heterodimer partner ligand and apoptosis inducer (E)-4-[3-(1-Adamantyl)-4-hydroxyphenyl]-3-chlorocinnamic acid” (J Med Chem, 2011)
Calls of active or inactive are those of the source. The calls are words filed in the database; no cut-off is given here.

Key:
KG-1 [1] = assay: Induction of apoptosis in human KG1 cells assessed as DNA fragmentation at 5 uM after 48 hrs by acridine orange staining method; type: functional
PC-3 [2] = assay: Induction of apoptosis in human PC3 cells assessed as decrease in ATP level after 72 hrs by luminescence assay; type: functional, cell-based
KG-1 [3] = assay: Growth inhibition in human KG1 cells expressing p53 gene at 1 uM after 48 hrs by MTT assay; type: functional; conditions: KG-1, 48 h, read-out: GI
HT-29 [4] = assay: Induction of apoptosis in human HT-29 cells assessed as decrease in ATP level after 72 hrs by luminescence assay; type: functional, cell-based
KG-1 [5] = assay: Induction of apoptosis in human KG1 cells expressing p53 gene assessed as DNA fragmentation at 1 uM after 48 hrs by acridine orange staining method; type: functional
A549 [6] = assay: Induction of apoptosis in human A549 cells assessed as decrease in ATP level after 72 hrs by luminescence assay; type: functional, cell-based
KG-1 [7] = assay: Growth inhibition in human KG1 cells expressing p53 gene at 5 uM after 48 hrs by MTT assay; type: functional; conditions: KG-1, 48 h, read-out: GI
A549 [8] = assay: Induction of apoptosis in human A549 cells assessed as decrease in ATP level at 10 uM after 72 hrs by luminescence assay; type: functional, cell-based
A549 [9] = assay: Induction of apoptosis in human A549 cells assessed as decrease in ATP level at 5 uM after 72 hrs by luminescence assay; type: functional; parameters: scale not given: the % may be the effect or the level left
PC-3 [10] = assay: Induction of apoptosis in human PC3 cells assessed as decrease in ATP level at 10 uM after 72 hrs by luminescence assay; type: functional, cell-based
PC-3 [11] = assay: Induction of apoptosis in human PC3 cells assessed as decrease in ATP level at 5 uM after 72 hrs by luminescence assay; type: functional; parameters: scale not given: the % may be the effect or the level left
HT-29 [12] = assay: Induction of apoptosis in human HT-29 cells assessed as decrease in ATP level at 5 uM after 72 hrs by luminescence assay; type: functional; parameters: scale not given: the % may be the effect or the level left
[13] = Induction of apoptosis in retinoid-resistant p53 null human HL60R cells assessed as DNA fragmentation at 0.1 uM after 24 hrs by acridine orange staining method; type: functional
[14] = Induction of apoptosis in retinoid-resistant p53 null human HL60R cells assessed as DNA fragmentation at 1 uM after 24 hrs by acridine orange staining method; type: functional
HT-29 [15] = assay: Induction of apoptosis in human HT-29 cells assessed as decrease in ATP level at 10 uM after 72 hrs by luminescence assay; type: functional
[16] = Induction of apoptosis in mouse MMTV-Wnt-1 cells assessed as cell viability after 72 hrs by DAPI staining based cell counting; type: functional

| SMILES | Activity (KG-1 [1]) [%] | Activity (PC-3 [2]) | inhibition of growth at 1 µM (KG-1 [3]) [%] | Activity (HT-29 [4]) | Activity (KG-1 [5]) [%] | Activity (A549 [6]) | inhibition of growth at 5 µM (KG-1 [7]) [%] | Activity (A549 [8]) | Activity (A549 [9]) | Activity (PC-3 [10]) | Activity (PC-3 [11]) [%] | Activity (HT-29 [12]) | Activity [13] [%] | Activity [14] [%] | Activity (HT-29 [15]) | IC50 [16] [nM] |
| --- | --- | --- | --- | --- | --- | --- | --- | --- | --- | --- | --- | --- | --- | --- | --- | --- |
| O=C(O)CCc1ccc(-c2ccc(O)c(C34CC5CC(CC(C5)C3)C4)c2)c(Cl)c1 | 1 | Dose-dependent effect | 0 | Dose-dependent effect | 0 | Dose-dependent effect | 0 |  |  |  |  |  |  |  |  |  |
| O=C(O)COc1ccc(-c2ccc(O)c(C34CC5CC(CC(C5)C3)C4)c2)c(Cl)c1 | 25 | Dose-dependent effect | 34 | Dose-dependent effect | 5 | Dose-dependent effect | 75 | inactive |  |  |  |  |  |  |  |  |
| O=C(O)/C=C/c1ccc(-c2ccc(O)c(C34CC5CC(CC(C5)C3)C4)c2)cn1 | 52 | Dose-dependent effect | 48 | Dose-dependent effect | 36 | Dose-dependent effect | 58 | Active | 10% | Active | >60 | 10% |  |  |  |  |
| O=C(O)c1ccc2c(Cl)c(-c3ccc(O)c(C45CC6CC(CC(C6)C4)C5)c3)ccc2c1 |  |  |  |  |  |  |  |  |  |  |  |  | 62 | 94 |  |  |
| O=C(O)/C=C/c1cnc(-c2ccc(O)c(C34CC5CC(CC(C5)C3)C4)c2)c(Cl)c1 | 65 | Dose-dependent effect | 41 | Dose-dependent effect | 56 | Dose-dependent effect | 47 | Active |  | Active |  |  |  |  | inactive |  |
| O=C(O)/C=C/c1cnc(-c2ccc(O)c(C34CC5CC(CC(C5)C3)C4)c2)cn1 | 50 | Dose-dependent effect | 44 | Dose-dependent effect | 39 | Dose-dependent effect | 61 |  |  | Active |  |  |  |  | inactive | 316 |
| O=C(O)CSc1ccc(-c2ccc(O)c(C34CC5CC(CC(C5)C3)C4)c2)c(Cl)c1 | 5 | Dose-dependent effect | 7 | Dose-dependent effect | 2 | Dose-dependent effect | 11 |  |  |  |  |  |  |  |  |  |
| O=C(O)CNc1cnc(-c2ccc(O)c(C34CC5CC(CC(C5)C3)C4)c2)nc1 | 0 | Dose-dependent effect | 0 | Dose-dependent effect | 0 | Dose-dependent effect | 0 |  |  |  |  |  |  |  |  |  |
| O=C(O)/C=C/C1CCN(c2ccc(O)c(C34CC5CC(CC(C5)C3)C4)c2)CC1 | 1 | Dose-dependent effect | 1 | Dose-dependent effect | 1 | Dose-dependent effect | 2 |  |  |  |  |  |  |  |  |  |
| O=C(O)CNc1ccc(-c2ccc(O)c(C34CC5CC(CC(C5)C3)C4)c2)c(Cl)c1 | 35 | Dose-dependent effect | 30 | Dose-dependent effect | 18 | Dose-dependent effect | 45 | inactive |  |  |  |  |  |  | >=40% |  |
| CC(=O)Oc1ccc(-c2ccc(/C=C/C(=O)O)cn2)cc1C12CC3CC(CC(C3)C1)C2 | 67 | Dose-dependent effect | 46 | Dose-dependent effect | 52 | Dose-dependent effect | 54 |  |  |  |  |  |  |  |  |  |
| O=C(O)CCN1CCN(c2ccc(O)c(C34CC5CC(CC(C5)C3)C4)c2)CC1 | 1 | Dose-dependent effect | -3 | Dose-dependent effect | 1 | Dose-dependent effect | 5 | inactive |  | Active |  |  |  |  |  |  |
| CCOC(=O)/C=C/c1ccc(-c2ccc(O)c(C34CC5CC(CC(C5)C3)C4)c2)nc1 | 0 | Dose-dependent effect | 0 | Dose-dependent effect | 0 | Dose-dependent effect | 45 | Active |  | Active |  |  |  |  |  |  |
| O=C(O)/C=C/c1ccc(-c2ccc(O)c(C34CC5CC(CC(C5)C3)C4)c2)nn1 | 59 | Dose-dependent effect | 70 | Dose-dependent effect | 48 | Dose-dependent effect | 80 | inactive | <=5% | Active | >60 | <=5% |  |  |  |  |
| O=C(O)c1cc2ccc(-c3ccc(O)c(C45CC6CC(CC(C6)C4)C5)c3)cc2[nH]1 | 3 | Dose-dependent effect | 1 | Dose-dependent effect | 1 | Dose-dependent effect | 8 |  |  |  |  |  |  |  |  |  |
| O=C(O)CC(=O)N1CCN(c2ccc(O)c(C34CC5CC(CC(C5)C3)C4)c2)C(=O)C1 | 2 | Dose-dependent effect | -2 | Dose-dependent effect | 1 | Dose-dependent effect | -5 |  |  |  |  |  |  |  |  |  |
| O=C(O)CS(=O)(=O)c1ccc(-c2ccc(O)c(C34CC5CC(CC(C5)C3)C4)c2)c(Cl)c1 | 6 | Dose-dependent effect | 7 | Dose-dependent effect | 2 | Dose-dependent effect | 13 |  |  |  |  |  |  |  |  |  |
